Results on 28 compounds are retold here after US4826958A, “Renin inhibiting compounds” (Abbott Laboratories, priority 1988, dated 1989).

The test deals with T1, human renal renin (Homo sapiens, UniProt P00797).
T1 construct: human renal renin, free from acid proteolytic activity; from tissue; host or cells: human kidney (renal)
T1 sequence (P00797 67-406): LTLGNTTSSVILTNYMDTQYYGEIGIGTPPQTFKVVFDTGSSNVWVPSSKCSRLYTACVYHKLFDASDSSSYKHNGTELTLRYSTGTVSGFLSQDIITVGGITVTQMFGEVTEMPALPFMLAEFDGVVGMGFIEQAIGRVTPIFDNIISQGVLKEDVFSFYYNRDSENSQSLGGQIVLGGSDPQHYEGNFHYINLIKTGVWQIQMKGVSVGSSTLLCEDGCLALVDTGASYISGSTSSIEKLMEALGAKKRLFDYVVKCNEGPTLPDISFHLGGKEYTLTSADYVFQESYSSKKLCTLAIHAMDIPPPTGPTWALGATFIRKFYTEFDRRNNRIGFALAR
Kind of test: inhibition of human renal renin in vitro, angiotensin I formed measured by radioimmunoassay. It counts as biochemical. The conditions noted are these: human renal renin with human renin substrate (angiotensinogen), 37° C., pH 6.0.
A word on the IC50: it is the midpoint of a concentration-inhibition curve. A low value points to greater potency in that assay. Turning to “2(R,S)-(4-morpholinylcarbonylmethyl)-3-(1'-naphthyl)-propionyl-His-ACHPA-amide of 2-methylbutylamine [Example 87]”, the IC50 turned out to be 2 nM.
The figure for “2(R,S)-(4-morpholinylcarbonylmethyl)-3-(4'-methoxyphenyl)-propionyl-His-ACHPA-amide of 2-methylbutylamine [Example 89]” is 61 nM.
The figure for `CC(C)CC(NC(=O)C(Cc1cnc[nH]1)NC(=O)C(Cc1ccccc1)NC(=O)OC(C)(C)C)C(O)CC(=O)NCc1ccccc1` (stereo not drawn) [Example 10, Boc-Phe-His-Sta amide of benzylamine] is 700 nM; for `CC(C)CNC(=O)CC(O)C(CC(C)C)NC(=O)C(Cc1cnc[nH]1)NC(=O)C(Cc1ccccc1)NC(=O)OC(C)(C)C` (stereo not drawn) [Example 12, Boc-Phe-His-Sta amide of isobutylamine] it is 500 nM.
Turning to `CCC(C)C(CO)NC(=O)CC(O)C(CC(C)C)NC(=O)C(C)NC(=O)C(Cc1cccc2ccccc12)NC(=O)OC(C)(C)C` (stereo not drawn) [Example 13, Boc-(α-Naphthyl)Ala-Ala-Sta-amide of isoleucinol], half-maximal inhibition (IC50) required 50 nM.
The compound `CCC(C)CNC(=O)CC(O)C(CC(C)C)NC(=O)C(Cc1cnc[nH]1)NC(=O)C(Cc1ccccc1)NC(=O)CC(C)(C)C` (stereo not drawn) [Example 16, t-Butylacetyl-Phe-His-Sta amide of 2-methylbutylamine] showed an IC50 of 100 nM.
`CCC(C)CNC(=O)C[C@H](O)[C@H](CC(C)C)NC(=O)[C@H](Cc1c[nH]cn1)NC(=O)[C@H](Cc1ccc(I)cc1)NC(=O)OC(C)(C)C` (stereo partly drawn) [Example 17, Boc-p-iodo-Phe-His-Sta amide of 2-methylbutylamine] yielded an IC50 of 1000 nM.
Consider `CC(C)CCNC(=O)CC(O)C(CC1CCCCC1)NC(=O)C(Cc1cnc[nH]1)NC(=O)C(Cc1ccccc1)NC(=O)OC(C)(C)C` (stereo not drawn) [Example 25, Boc-Phe-His-ACHPA amide of isopentylamine], for which the concentration for half-maximal inhibition (IC50) was found to be 5 nM.
In turn, `CCC(C)CNC(=O)C(OCc1ccccc1)C(O)C(CC1CCCCC1)NC(=O)[C@H](C)NC(=O)[C@H](Cc1ccccc1)NC(=O)OC(C)(C)C` (stereo partly drawn) [Example 32, Boc-Phe-Alaninyl-4-amino-2-benzyloxy-3-hydroxy-5-cyclohexylpentanoic acid amide of 2-methylbutylamine] came in with an IC50 of 6 nM.
As for `CCC(C)CNC(=O)C(OCc1ccccc1)C(O)C(CC1CCCCC1)NC(=O)C(Cc1cnc[nH]1)NC(=O)C(Cc1ccccc1)NC(=O)OC(C)(C)C` (stereo not drawn) [Example 33, Boc-Phe-Histidinyl-4-amino-2-benzyloxy-3-hydroxy-5-cyclohexylpentanoic acid amide of 2-methylbutylamine], the IC50 is 35 nM.
For the compound `CCC(C)CNC(=O)C(O)C(O)C(CC1CCCCC1)NC(=O)C(C)NC(=O)C(Cc1ccccc1)NC(=O)OC(C)(C)C` (stereo not drawn) [Example 34, Boc-Phe-Alaninyl-4-amino-2,3-dihydroxy-5-cyclohexylpentanoic acid amide of 2-methylbutylamine], the midpoint of inhibition, the IC50, lay at 20 nM.
`CCC(C)CNC(=O)C(O)C(O)C(CC1CCCCC1)NC(=O)C(Cc1cnc[nH]1)NC(=O)C(Cc1ccccc1)NC(=O)OC(C)(C)C` (stereo not drawn) [Example 35, Boc-Phe-Histidinyl-4-amino-2,3-dihydroxy-5-cyclohexylpentanoic acid amide of 2-methylbutylamine]: the IC50 is 7 nM.
As for `CCC(C)CNC(=O)C(OC)C(O)C(CC1CCCCC1)NC(=O)[C@H](Cc1cnc[nH]1)NC(=O)[C@H](Cc1ccccc1)NC(=O)OC(C)(C)C` (stereo partly drawn) [Example 40, Boc-Phe-Histidinyl-4-amino-2-methoxy-3-hydroxy-5-cyclohexylpentanoic acid amide of 2-methylbutylamine], inhibition was half-maximal at 30 nM (IC50).
`C=CCC(C(=O)NCC(C)CC)C(O)C(CC1CCCCC1)NC(=O)C(Cc1cnc[nH]1)NC(=O)C(Cc1ccccc1)NC(=O)OC(C)(C)C` (stereo not drawn) [Example 45, Boc-Phe-Histidinyl-4-amino-2-allyl-3-hydroxy-5-cyclohexylpentanoic acid amide of 2-methylbutylamine] gave an IC50 of 1 nM.
Take `CCCC(C(=O)NCC(C)CC)C(O)C(CC1CCCCC1)NC(=O)C(Cc1cnc[nH]1)NC(=O)C(Cc1ccccc1)NC(=O)OC(C)(C)C` (stereo not drawn) [Example 46, Boc-Phe-Histidinyl-4-amino-2-propyl-3-hydroxy-5-cyclohexylpentanoic acid amide of 2-methylbutylamine]: the concentration for half-maximal inhibition (IC50) was 1.5 nM.
`CCC(C)CNC(=O)C(OC)C(O)C(CC1CCCCC1)NC(=O)C(CCSC)NC(=O)C(Cc1ccccc1)NC(=O)OC(C)(C)C` (stereo not drawn) [Example 47, Boc-Phe-Methioninyl-4-amino-2-methoxy-3-hydroxy-5-cyclohexylpentanoic acid amide of 2-methylbutylamine] displayed a half-inhibitory concentration (IC50) of 1 nM.
In turn, `CCC(C)CNC(=O)C(OC)C(O)C(CC1CCCCC1)NC(=O)C(CSC)NC(=O)C(Cc1ccccc1)NC(=O)OC(C)(C)C` (stereo not drawn) [Example 48, Boc-Phe-S-methylcysteinyl-4-amino-2-methoxy-3-hydroxy-5-cyclohexlpentanoic acid amide of 2-methylbutylamine] yielded an IC50 of 0.7 nM.
Turning to `C=CCC(C(=O)NCC(C)CC)C(O)C(CC1CCCCC1)NC(=O)C(C)NC(=O)C(Cc1ccccc1)NC(=O)OC(C)(C)C` (stereo not drawn) [Example 49, Boc-Phe-Alaninyl-4-amino-2-allyl-3-hydroxy-5-cyclohexylpentanoic acid amide of 2-methylbutylamine], half-maximal inhibition (IC50) required 1.5 nM.
The figure for `C=CCC(C(=O)NCC(C)CC)C(O)C(CC1CCCCC1)NC(=O)C(CSC)NC(=O)C(Cc1ccccc1)NC(=O)OC(C)(C)C` (stereo not drawn) [Example 50, Boc-Phe-S-methylcysteinyl-4-amino-2-allyl-3-hydroxy-5-cyclohexylpentanoic acid amide of 2-methylbutylamine] is 1 nM; for `CCC(C)CNC(=O)CC(O)C(CC1SCCS1)NC(=O)[C@H](CSC)NC(=O)[C@H](Cc1ccccc1)NC(=O)OC(C)(C)C` (stereo partly drawn) [Example 78, Boc-Phe-S-methylcysteinyl-[3-hydroxy-4-amino-5-(1',3'-dithiolan-2'-yl)]-pentanoic acid amide of 2-methylbutylamine] it is 1 nM; for `CCC(C)CNC(=O)CC(O)C(CC1SCCCS1)NC(=O)C(CSC)NC(=O)C(Cc1ccccc1)NC(=O)OC(C)(C)C` (stereo not drawn) [Example 79, Boc-Phe-S-methylcysteinyl-[3-hydroxy-4-amino-5-(1',3'-dithian-2'-yl)]-pentanoic acid amide of 2-methylbutylamine] it is 6 nM.
Next, `CCC(C)CNC(=O)CC(O)C(CC1OCCO1)NC(=O)C(CSC)NC(=O)C(Cc1ccccc1)NC(=O)OC(C)(C)C` (stereo not drawn) [Example 80, Boc-Phe-S-methylcysteinyl-[3-hydroxy-4-amino-5-(1',3'-dioxolan-2'-yl)]-pentanoic acid amide of 2-methylbutylamine]: 600 nM.
Next, `CCC(C)CNC(=O)CC(O)C(CC1OCCCO1)NC(=O)[C@H](CSC)NC(=O)[C@H](Cc1ccccc1)NC(=O)OC(C)(C)C` (stereo partly drawn) [Example 81, Boc-Phe-S-methylcysteinyl-[3-hydroxy-4-amino-5-(1',3'-dioxan-2'-yl)]-pentanoic acid amide of 2-methylbuylamine]: 700 nM.
`CCOC(=O)N[C@@H](Cc1ccccc1)C(=O)N[C@@H](CC(C)C)C(=O)NC(CC1OCCCO1)C(O)CC(=O)NCC(C)CC` (stereo partly drawn) [Example 82, Ethoxycarbonyl-Phe-Leu-[3-hydroxy-4-amino-5-(1',3'-dioxan-2'-yl)]-pentanoicacid amide of 2-methylbutylamine] yielded a concentration for half-maximal inhibition (IC50) of 7500 nM.
In the case of `CCC(C)CNC(=O)CC(O)C(CC1SCCS1)NC(=O)C(Cc1cnc[nH]1)NC(=O)C(Cc1ccccc1)NC(=O)OC(C)(C)C` (stereo not drawn) [Example 83, Boc-Phe-His-[3-hydroxy-4-amino-5-(1',3'-dithiolan-2'-yl)]-pentanoic acid amide of 2-methylbutylamine], the IC50 was determined as 1.5 nM.
As for `CCC(C)CNC(=O)CC(O)C(CC1CCCCC1)NC(=O)C(CSC)NC(=O)C(Cc1ccccc1)NC(=O)N1C[C@@H](O)[C@@H](O)C1` (stereo partly drawn) [Example 95, (3,4-cis-dihydroxypyrrolidinylcarbonyl)-Phe-S-methyl-cys-ACHPA-amide of 2-Methylbutylamine], half-maximal inhibition (IC50) required 0.56 nM.
For “(3,4-cis-dihydroxypyrrolidinylcarbonyl)-O-methyl-Tyr-O-methyl-Ser-ACHPA Amide of 2-Methylbutylamine [Example 97]”, the half-inhibitory concentration (IC50) was found to be 16 nM.
Next, “Boc-(α-Naphthyl)-Ala-Ala-Sta amide of benzylamine [Example 11]”: 400 nM.
